Experiment [1] has as its system adhesion between the cell-lined intravascular endothelial cell strain #5-1 and the cancer cells HL-60. Put plainly: Adhesion inhibition of [35S]methionine-labeled HL-60 cancer cells to cell-lined intravascular endothelial cell strain #5-1 (FIGS. 9(a), 9(b)). It is filed as cell-based, human. Particulars: at a concentration at which the Ia or Ib sugar chain exhibited adhesion inhibiting activity.
Method: (4) Next, how much adhesion of the cancer cell to the intravascular endothelial cells thus cultivated was inhibited by the addition of the sugar chain obtained above to the intravascular endothelial cells was examined. First, intravascular endothelial cells were placed on one plane of a 96-well plate, and appearance of E-selectin was induced by adding interleukin-1β to the cells. The cultivation for about 3 hours made E-selectin appear. The Ia type or Ib type sugar chain was added to it, and 1×10^4 cancer cells labeled with [^35 S] methionine were added to it, and the mixture was left at 37° C. for 30 minutes as it was. Thereafter, the mixture was immersed in and washed with PBS, and those cancer cells not adhered were washed off. The cells were recovered by adding 100 μl of a 0.1 N aqueous solution of sodium hydroxide to each of the 96-well plates, and a residual radioactivity value was measured by using a liquid scintillation counter.

The test system of another experiment is E-selectin. Put plainly: E-selectin appearance on intravascular endothelial cells by fluorescent microscopy with E-selectin antibody (FIG. 7). The experiment is classed as cell-based. The conditions noted are these: interleukin-1β added (FIGS. 7(a), 7(b)) vs not added; human normal cells and strain #5. The method, then: FIGS. 7(a) through 7(d) are microphotographs obtained by photographing with a fluorescent microscope to confirm whether E-selectin was produced or not at the surfaces of the intravascular endothelial cells, through coloring the human normal intravascular endothelial cells and the cell-lined human intravascular endothelial cell strains #5 with E-selectin antibody. As compared with cases in which no interleukin-1β was added (FIGS. 7(c) and 7(d)), it is clear that appearance of E-selectin was induced in cases where interleukin-1β was added (FIGS. 7(a) and 7(b)).

The subject of experiment [2] is adhesion of the cancer cells HL-60 to the intravascular endothelial cells. Put plainly: Microscopic observation of adhesion of HL-60 cancer cells to intravascular endothelial cells (FIG. 8). The experiment is classed as cell-based, human. Particulars: interleukin-1β added (FIG. 8b) vs not added (FIG. 8a).
From the text: Slender, large cells are intravascular endothelial cells, and whitish, bright, round cells are cancer cells HL-60.

On to colominic acid, for which the adhesion inhibiting activity entry in experiment [1] is “not almost exhibited”.

Consider “interleukin-1β: added to the cells to induce appearance of E-selectin”, for which the “appearance of E-selectin” value with E-selectin is listed as “induced”. The “adhesion of the cancer cells to the intravascular endothelial cells (microphotographs)” value in experiment [2] is listed as “more conspicuous”.

The values are drawn from patent publication US5939404A, “Cancer metastasis inhibitor containing a streptococcus agalactiae Ia type or Ib type surface polysaccharide as a main ingredient” (NGK Insulators, Ltd., priority 1997, dated 1999).
